Results taken from ChEMBL document CHEMBL1201862, “PubChem BioAssay data set” (2004).
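Tested at 5 concentrations; 48 h exposure; 96-well plates; endpoints linearly interpolated, else capped at highest concentration. Here, GI50 denotes the concentration required for 50% inhibition of growth.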 Calls of active or inactive are those of the source. Rule as the data show it: active = GI50 up to about 1.1 µM and inactive = higher.

Experiments:
Experiment in all cases: NCI anticancer screen, dose series, 48 h
UACC-257 = test system: UACC-257
UO-31 = test system: UO-31
KM-20L2 = test system: KM-20L2
SNB-19 = test system: SNB-19
KM12 = test system: KM12
HL-60 = test system: HL-60
HCC 2998 = test system: HCC 2998
LXFL 529 = test system: LXFL 529
A498 = test system: A498
HCT-15 = test system: HCT-15
ACHN = test system: ACHN
DMS-114 = test system: DMS-114
RXF 393 = test system: RXF 393
SK-MEL-28 = test system: SK-MEL-28
K562 = test system: K562
OVCAR-4 = test system: OVCAR-4
NCI-H460 = test system: NCI-H460
M19-MEL = test system: M19-MEL
SW-620 = test system: SW-620
HOP-92 = test system: HOP-92
DLD-1 = test system: DLD-1
SF-268 = test system: SF-268
OVCAR-8 = test system: OVCAR-8
RPMI-8226 = test system: RPMI-8226
NCI-H23 = test system: NCI-H23
SK-MEL-2 = test system: SK-MEL-2
SN12C = test system: SN12C
COLO 205 = test system: COLO 205
U-251 = test system: U-251
HT-29 = test system: HT-29
A549 = test system: A549
M14 = test system: M14
CCRF-CEM = test system: CCRF-CEM
OVCAR-5 = test system: OVCAR-5
SF-295 = test system: SF-295
786-0 = test system: 786-0
HCT-116 = test system: HCT-116
SNB-78 = test system: SNB-78
IGROV-1 = test system: IGROV-1
SF-539 = test system: SF-539
EKVX = test system: EKVX
Malme-3M = test system: Malme-3M
UACC-62 = test system: UACC-62
MOLT-4 = test system: MOLT-4
SNB-75 = test system: SNB-75
NCI-H522 = test system: NCI-H522
HOP-62 = test system: HOP-62
RXF 631 = test system: RXF 631
HOP-18 = test system: HOP-18
SK-MEL-5 = test system: SK-MEL-5

O=C1OC(c2ccccc2)=N/C1=C\c1cc(Cl)ccc1Cl
GI50 (UACC-257): > 100 µM (inactive) | GI50 (UO-31): > 100 µM (inactive) | GI50 (KM-20L2): > 100 µM (inactive) | GI50 (SNB-19): > 100 µM (inactive) | GI50 (KM12): 74.1 µM (inactive) | GI50 (HL-60): 6.64 µM (inactive) | GI50 (HCC 2998): > 100 µM (inactive) | GI50 (LXFL 529): 28.5 µM (inactive) | GI50 (A498): > 100 µM (inactive) | GI50 (HCT-15): 16.4 µM | GI50 (ACHN): > 100 µM (inactive) | GI50 (DMS-114): 49.8 µM (inactive) | GI50 (RXF 393): > 100 µM (inactive) | GI50 (SK-MEL-28): > 100 µM (inactive) | GI50 (K562): 18.1 µM (inactive) | GI50 (OVCAR-4): > 100 µM (inactive) | GI50 (NCI-H460): > 100 µM (inactive) | GI50 (M19-MEL): > 100 µM (inactive) | GI50 (SW-620): 34.9 µM (inactive) | GI50 (HOP-92): > 100 µM (inactive) | GI50 (DLD-1): 33.8 µM (inactive) | GI50 (SF-268): 66.2 µM (inactive) | GI50 (OVCAR-8): > 10 µM (inactive) | GI50 (RPMI-8226): 44.8 µM (inactive) | GI50 (NCI-H23): > 100 µM (inactive) | GI50 (SK-MEL-2): > 100 µM (inactive) | GI50 (SN12C): 80.2 µM (inactive) | GI50 (COLO 205): > 100 µM (inactive) | GI50 (U-251): 70.8 µM (inactive) | GI50 (HT-29): > 100 µM (inactive) | GI50 (A549): > 100 µM (inactive) | GI50 (M14): 32.6 µM (inactive) | GI50 (CCRF-CEM): 23.9 µM (inactive) | GI50 (OVCAR-5): > 100 µM (inactive) | GI50 (SF-295): > 100 µM (inactive) | GI50 (786-0): 62.2 µM (inactive) | GI50 (HCT-116): 10.3 µM (inactive) | GI50 (SNB-78): 44.5 µM (inactive) | GI50 (IGROV-1): > 100 µM (inactive) | GI50 (SF-539): 72.4 µM (inactive) | GI50 (EKVX): > 100 µM (inactive) | GI50 (Malme-3M): > 100 µM (inactive) | GI50 (UACC-62): > 100 µM (inactive) | GI50 (MOLT-4): 23 µM (inactive) | GI50 (SNB-75): 3.48 µM (inactive) | GI50 (NCI-H522): > 100 µM (inactive) | GI50 (HOP-62): > 100 µM (inactive) | GI50 (RXF 631): 25 µM (inactive) | GI50 (HOP-18): > 100 µM (inactive) | GI50 (SK-MEL-5): > 100 µM (inactive)
